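Five compound concentrations were applied to cells in 96-well plates for 48 hours; endpoints were derived by simple linear interpolation of the resulting dose-response curve. GI50 = concentration required for 50% inhibition of growth.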 Calls of active or inactive are those of the source. No stated cut-off is given here; in the data, active = GI50 up to about 1.1 µM and inactive = higher. Non-standard residues stand in square brackets, D forms with d. Residues, ends and D or L forms follow the SMILES beside them. Ava = NCCCCC(=O)O; Mpa = O=C(O)CCS
Columns and labels:
Experiment in all cases: inhibition of tumour cell growth, NCI panel, 48 h
[1] = system: 786-0
[2] = system: DU-145
[3] = system: HCC 2998
[4] = system: HOP-62
[5] = system: IGROV-1
[6] = system: KM12
[7] = system: LOX IMVI
[8] = system: MDA-MB-231
[9] = system: MDA-MB-435
[10] = system: MOLT-4
[11] = system: Malme-3M
[12] = system: NCI/ADR-RES
[13] = system: RPMI-8226
[14] = system: SF-268
[15] = system: SF-539
[16] = system: SK-MEL-5
[17] = system: SW-620
[18] = system: UACC-257
[19] = system: UO-31
[20] = system: A498

Measured: GI50

Cc1cnc(/N=c2\sc(C)cn2-c2ncc(C)s2)s1
inactive: [1] > 100 µM | [2] > 100 µM | [3] > 100 µM | [4] > 100 µM | [5] > 100 µM | [6] > 100 µM | [7] > 100 µM | [8] > 100 µM | [9] > 100 µM | [10] > 100 µM | [11] > 100 µM | [12] > 100 µM | [13] > 100 µM | [14] > 100 µM | [15] > 100 µM | [16] > 100 µM | [17] > 100 µM | [18] > 100 µM | [19] > 100 µM

Cc1nn(C(=O)c2ccncc2)c2c1C(c1ccccc1[N+](=O)[O-])SC(=N)N2 (centres undefined)
inactive: [1] > 10 µM | [2] > 10 µM | [3] > 10 µM | [4] > 10 µM | [5] > 10 µM | [6] > 10 µM | [7] > 10 µM | [8] > 10 µM | [9] > 10 µM | [10] > 10 µM | [11] > 10 µM | [12] > 10 µM | [13] > 10 µM | [14] > 10 µM | [15] > 10 µM | [16] > 10 µM | [17] > 10 µM | [18] > 10 µM

COC(=O)C(Cc1c[nH]c2ccccc12)NP(=O)(O)OCC1OC(n2ccc(N)nc2=O)C(O)C1O (centres undefined)
inactive: [1] > 100 µM | [20] > 100 µM | [2] > 100 µM | [4] > 100 µM | [5] > 100 µM | [6] > 100 µM | [7] > 100 µM | [8] > 100 µM | [9] > 100 µM | [10] > 100 µM | [11] > 100 µM | [12] > 100 µM | [13] > 100 µM | [14] > 100 µM | [15] > 100 µM | [16] > 100 µM | [17] > 100 µM | [18] > 100 µM | [19] > 100 µM

c1ccc(-c2cs[s+]c2)cc1
inactive: [1] > 100 µM | [20] > 100 µM | [2] > 100 µM | [3] > 100 µM | [4] > 100 µM | [5] > 100 µM | [6] > 100 µM | [7] > 100 µM | [8] > 100 µM | [9] > 100 µM | [10] 26.5 µM | [11] > 100 µM | [12] > 100 µM | [14] > 100 µM | [16] > 100 µM | [17] 49.5 µM | [18] > 100 µM | [19] > 100 µM

C[C@@H]1[C@@H](c2ccccc2)O[B-](c2ccccc2)(c2ccccc2)[N+]1(C)C
inactive: [1] 66.7 µM | [20] 67.8 µM | [2] > 100 µM | [4] > 100 µM | [5] 96.8 µM | [6] > 100 µM | [7] > 100 µM | [8] > 100 µM | [9] 98.6 µM | [10] > 100 µM | [11] 78 µM | [12] > 100 µM | [13] 58.9 µM | [14] > 100 µM | [15] 55.7 µM | [16] 27.5 µM | [17] 62.7 µM | [18] > 100 µM | [19] 22.7 µM

Oc1[nH]c(Nc2cc(Cl)cc(Cl)c2)nc2ncnc1-2
inactive: [1] > 75 µM | [2] > 75 µM | [3] > 75 µM | [4] > 75 µM | [5] > 75 µM | [6] > 75 µM | [7] > 75 µM | [8] > 75 µM | [9] > 75 µM | [10] > 75 µM | [11] > 75 µM | [12] > 75 µM | [13] > 75 µM | [14] > 75 µM | [15] > 75 µM | [16] > 75 µM | [17] > 75 µM | [18] > 75 µM | [19] > 75 µM

c1ccc(NN/N=N/c2ccc(-c3nc4ccccc4[nH]3)cc2)cc1
inactive: [1] 28.2 µM | [20] 43.7 µM | [2] 42.7 µM | [4] 41.3 µM | [5] 27.8 µM | [6] 19.5 µM | [7] 15.2 µM | [8] 72.8 µM | [9] 19.4 µM | [10] 14.5 µM | [11] 28.7 µM | [12] 22.1 µM | [13] 14.2 µM | [15] 77.6 µM | [16] 29 µM | [17] 52.4 µM | [18] 28.6 µM | [19] 34.5 µM

CC1=C2C3=C(C)C(=O)C(C)(C)CC[C@@]3(C)[C@]2(C)CCC(C)(C)C1=O
inactive: [1] > 100 µM | [20] > 100 µM | [2] > 100 µM | [4] > 100 µM | [5] > 100 µM | [6] > 100 µM | [7] > 100 µM | [8] > 100 µM | [9] > 100 µM | [10] > 100 µM | [11] > 100 µM | [12] > 100 µM | [13] > 100 µM | [14] > 100 µM | [15] > 100 µM | [16] > 100 µM | [17] > 100 µM | [18] > 100 µM | [19] > 100 µM

C[C@@H](c1ccccc1)N1CN(C(=O)OCc2ccccc2)C(C)(C)CC1=O
inactive: [1] > 100 µM | [2] > 100 µM | [3] > 100 µM | [4] > 100 µM | [5] > 100 µM | [6] > 100 µM | [7] > 100 µM | [8] > 100 µM | [9] > 100 µM | [10] > 100 µM | [11] > 100 µM | [12] > 100 µM | [13] > 100 µM | [14] > 100 µM | [15] > 100 µM | [16] 41.7 µM | [17] > 100 µM | [18] 78.2 µM

Cn1c(=O)sc2cc(C(=S)N3CCCCC3)ccc21
active: [11] 0.865 µM
inactive: [1] > 100 µM | [20] 59.7 µM | [2] > 100 µM | [4] > 100 µM | [5] 23.2 µM | [6] > 100 µM | [7] 81.5 µM | [8] 45.9 µM | [9] > 100 µM | [10] 27.6 µM | [12] 29.6 µM | [13] 61 µM | [14] 25.6 µM | [15] 54.5 µM | [16] > 100 µM | [17] > 100 µM | [18] > 100 µM

COc1cc(O)cc2oc(-c3ccc(O)cc3)cc(=O)c12
inactive: [1] 68.4 µM | [20] 29.6 µM | [2] > 100 µM | [4] 74.6 µM | [5] 47.3 µM | [6] > 100 µM | [7] > 100 µM | [8] > 100 µM | [9] > 100 µM | [10] > 100 µM | [11] 76.6 µM | [12] > 100 µM | [13] 66.1 µM | [14] 67.8 µM | [15] > 100 µM | [16] > 100 µM | [17] 49.3 µM | [18] > 100 µM | [19] 55 µM

COc1cc(/C=C/C(=O)OC[C@]23O[C@H]2[C@@H](OC2OC(C)C(O)C(O)C2O)C2C=CO[C@@H](OC4OC(CO)C(O)C(O)C4O)C23)ccc1O (some centres undefined)
inactive: [1] > 100 µM | [2] > 100 µM | [3] > 100 µM | [4] > 100 µM | [5] > 100 µM | [6] > 100 µM | [7] > 100 µM | [8] > 100 µM | [9] > 100 µM | [10] > 100 µM | [11] > 100 µM | [12] > 100 µM | [13] > 100 µM | [14] > 100 µM | [16] > 100 µM | [17] > 100 µM | [19] > 100 µM

Cc1ccc(Nc2nc3ccccc3nc2NS(=O)(=O)c2ccc(N)cc2)cc1
inactive: [1] 82.4 µM | [2] 97.9 µM | [3] 3.64 µM | [4] > 100 µM | [5] 56.8 µM | [6] 23.5 µM | [7] 70.3 µM | [8] > 100 µM | [9] 30.7 µM | [10] 15.6 µM | [11] 91.2 µM | [12] 61.8 µM | [13] 23.6 µM | [14] 89.7 µM | [15] 39.4 µM | [16] 39.2 µM | [17] 20.4 µM | [18] > 100 µM | [19] 21.5 µM

CC(NC(=O)CCS)C(=O)NC(C)C(=O)NC(Cc1c[nH]c2ccccc12)C(=O)NC(Cc1c[nH]cn1)C(=O)NC(CO)C(=O)NC(Cc1c[nH]c2ccccc12)C(=O)NCCCCC(=O)NC(C)C(=O)NC(CCC(N)=O)C(=O)NC(CCCCN)C(=O)NC(C)C(=O)NC(CCCNC(=N)N)C(=O)NC(CCCCN)C(N)=O (centres undefined) ([Mpa]AAWHSW[Ava]AQKARK-NH2; configuration not given here)
inactive: [1] 31.6 µM | [20] > 100 µM | [2] 87.9 µM | [4] > 100 µM | [5] > 100 µM | [6] 26.2 µM | [7] > 100 µM | [8] > 100 µM | [9] 45.9 µM | [10] > 100 µM | [11] 19 µM | [12] > 100 µM | [13] > 100 µM | [14] 29.2 µM | [15] > 100 µM | [16] 35.6 µM | [17] 94.4 µM | [18] 24.2 µM | [19] > 100 µM

Source: ChEMBL document CHEMBL1201862, “PubChem BioAssay data set” (2004)
